From US5656637A, “Thiazole derivatives” (Yamanouchi Pharmaceutical Co., Ltd., priority 1990, dated 1997)
Like-named read-outs stand apart in the source and are kept apart here.

Assays:
[1] = target: T1, 5-HT3 receptor (Rattus norvegicus, UniProt P35563); assay: Effects of 5-HT3 receptor antagonists on the action of the compound of the present invention (decreases in heart rate and blood pressure); type: in vivo, rat (male Wistar); conditions: GR38032F 30 μg/kg i.v. or ICS 205-930 0.1-1 μg/kg i.v., 10 minutes before the compound of the present invention
T1 construct: Male Wistar rats, 9 weeks old, were anesthetized with urethane; from tissue; host or cells: whole animal in vivo: anesthetized male Wistar rat (endogenous receptor; tissue not given)
T1 sequence (P35563 24-483): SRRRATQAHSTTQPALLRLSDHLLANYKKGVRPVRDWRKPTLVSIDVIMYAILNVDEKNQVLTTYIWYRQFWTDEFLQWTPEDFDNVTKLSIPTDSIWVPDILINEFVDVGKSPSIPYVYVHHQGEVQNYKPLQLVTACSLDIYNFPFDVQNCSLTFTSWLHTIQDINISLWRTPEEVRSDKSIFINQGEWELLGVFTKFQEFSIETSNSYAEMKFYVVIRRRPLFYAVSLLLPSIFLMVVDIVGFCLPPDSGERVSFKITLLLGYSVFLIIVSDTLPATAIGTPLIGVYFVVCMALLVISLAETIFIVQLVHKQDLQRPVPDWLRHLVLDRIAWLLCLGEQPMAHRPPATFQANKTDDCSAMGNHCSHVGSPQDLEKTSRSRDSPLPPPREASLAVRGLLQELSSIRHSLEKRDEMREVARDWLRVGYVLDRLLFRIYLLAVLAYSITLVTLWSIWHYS
Protocol: Male Wistar rats, 9 weeks old, were anesthetized with urethane 1 g/kg i.p. and the blood pressure and the heart rate were determined under artificial ventilation. […] In addition, it was confirmed by using 5-HT3 receptor antagonists that the changes caused by administration of the compound of the present invention were 5-HT3 receptor-mediated responses.
2) Effects of 5-HT3 receptor antagonists on the action of the compound of the present invention
GR38032F (30 μg/kg i.v.) or ICS 205-930 (0.1-1 μg/kg i.v.), 10 minutes before administration of the compound of the present invention.

[2] = target: T1, 5-HT3 receptor; assay: 5-HT3 receptor stimulating action (Bezold-Jarisch reflex evoking action) in anesthetized rat, i.v.; type: in vivo, rat (male Wistar); conditions: for ED50: iv, read-out: BJ reflex evoking activity ED50
Protocol: Male Wistar rats, 9 weeks old, were anesthetized with urethane 1 g/kg i.p. and the blood pressure and the heart rate were determined under artificial ventilation.
1) 5-HT3 receptor stimulating action (Bezold-Jarisch reflex evoking action)

Cc1nccn1CC1CCc2c(c3ccccc3n2C)C1=O (racemic) [GR38032F]
inhibition by 5-HT3 receptor antagonist of the decreases in heart rate and blood pressure induced by the compound of the present invention [1]: competitively inhibited

Cc1[nH]c2ccc(O)cc2c1CCN [2-Methylserotonin, 2-methylserotonin]
BJ reflex evoking activity Emax (maximal bradycardiac response) ([2]; i.v., anesthetized rat): 259.0 beats/min | ED50 ([2]; rat): 0.0374 mg/kg

COc1ccccc1Nc1nc2c(s1)CN(C)CC2.O=C(O)/C=C/C(=O)O [Example 1, 2-(o-methoxyanilino)-5-methyl-4,5,6,7-tetrahydrothiazolo[5,4-c]pyridine fumarate]
BJ reflex evoking activity Emax (maximal bradycardiac response) ([2]; i.v., anesthetized rat): 205.8 beats/min | Bezold-Jarisch reflex evoking activity, potency relative to serotonin ([2]; i.v., rat, versus serotonin): about 5 fold | ED50 ([2]; anesthetized rat): 0.00301 mg/kg

CN1C2CCC1CC(OC(=O)c1c[nH]c3ccccc13)C2 (stereo not shown) [ICS 205-930]
inhibition by 5-HT3 receptor antagonist of the decreases in heart rate and blood pressure induced by the compound of the present invention [1]: competitively inhibited
